Reference: article PMC11272821, “Mechanistic safety assessment via multi-omic characterisation of systemic pathway perturbations following in vivo MAT2A inhibition” (Archives of Toxicology, 2024)

Test system: rat liver proteome
Test: Liver label-free quantitative proteomics
Assay type: in vivo
Protocol: Liver tissue were homogenized in PreOmics iST buffer (PreOmics) using a bead ruptor. […] Peptides were purified using PreOmics iST cartridges and vacuum-centrifuged to dryness. Peptides were subsequently reconstituted in 2 vol% ACN and 0.1 vol% formic acid for single-run LC–MS analysis. Peptides were analyzed using a Thermo EASY-nLC1200 coupled online to an Exploris 480 Mass Spectrometer equipped with a Nanospray Flex Ion Source integrated with a column oven (PRSO-V1, Sonation) and a FAIMS unit. Peptides were separated using a nonlinear gradient and analyzed by acquiring spectra through Data Independent Acquisition (DIA). Data was analyzed using Spectronaut V15.7.2 (Biognosys AG) direct DIA analysis using an isoform Rat database (UniProt downloaded 22.02.2021) consisting of 9,746 protein entries utilizing the Pulsar search engine. Analysis settings were maintained to factory settings and identification was set to 1% false discovery rate (FDR) for precursor and protein level. Additional information is provided in Supplementary M&M.
Data analysis was performed using R Statistical Software (version 4.3.0). Proteomics, transcriptomics and metabolomics expression changes were visualised using heatmaps showing log2 fold change relative to control. In the heatmaps missing values were highlighted in grey.
Proteomics Analysis. Liver tissue was placed in vials containing 1.4 mm zirconia beads and taken up in 500 µL of PreOmics iST buffer (PreOmics). In a cold room set to 4 °C, tissues were homogenized utilizing a bead Ruptor 12 by shaking for 30 seconds for a total of 5 times using ‘high’ setting. Lysate was normalized using BCA assay (Thermo Fisher Scientific), and subsequently incubated at 95 °C for 10 min for reduction, and alkylation of proteins. A total of 50 μg from each sample was subjected to enzymatic cleavage for 3 h by adding equal amounts of endoproteinase Lys-C and trypsin (ThermoFisher Scientific, # A40009) in a 1:50 (wt/wt) enzyme:protein ratio. De-salting and purification were performed according to the PreOmics iST protocol on a styrene divinylbenzene reversed-phase sulfonate sorbent. Purified peptides were vacuum-centrifuged to dryness and reconstituted in double-distilled water with 2 vol% ACN and 0.1 vol% formic acid (FA) for single-run LC-MS analysis.
Peptides were loaded onto a ReproSil-Pur 120 C18AQ 1.9 µm in-house packed to a 5 µm tip 75u ID × 360u × 50 cm column using Thermo EASY-nLC 1200 coupled online to an Exploris 480 Mass Spectrometer equipped with a Nanospray Flex Ion Source integrated with a column oven (PRSO-V1, Sonation) maintained at 50 °C. Peptides were separated using a nonlinear gradient: Mobile phase A was 0.1 vol% FA and 3 vol% acetonitrile (ACN) in water, Mobile phase B was 90 vol% ACN and 0.1 vol % FA. The gradient was operated at 250 nL/min flowing 3 vol% B for 3 min, 3 to 5 vol% B over 3 min, 5 to 17 vol % B over 120 min, 17 to 24 vol % B over 26 min, 24 to 30 vol% B over 14 min, 30 to 85 vol% B over 3 min.

Cn1cc2cc(-c3cc4[nH]nc(C5CC5)c4n(-c4ccc(OC(F)F)cc4)c3=O)ccc2n1 [AZ’9567]
Hexa Log2FC (liver protein, 10mg/kg): -0.7
Hfe Log2FC (liver protein, 10mg/kg): 1.0
Hmgcs1 Log2FC (liver protein, 10mg/kg): 1.1
Hmgn2 Log2FC (liver protein, 10mg/kg): 1.0
Hnrnpa1 Log2FC (liver protein, 10mg/kg): 1.1
Hsd17b7 Log2FC (liver protein, 10mg/kg): 0.6
Idi1 Log2FC (liver protein, 10mg/kg): 0.9
Igf1 Log2FC (liver protein, 10mg/kg): -1.2
Kalrn Log2FC (liver protein, 10mg/kg): 0.6
Lipa Log2FC (liver protein, 10mg/kg): -0.8
Lrrc8d Log2FC (liver protein, 10mg/kg): 1.0
Lyrm2 Log2FC (liver protein, 10mg/kg): 0.9
Mat2a Log2FC (liver protein, 10mg/kg): 0.7
Mat2b Log2FC (liver protein, 10mg/kg): -2.4
Me1 Log2FC (liver protein, 10mg/kg): -1.5
Mettl7b Log2FC (liver protein, 10mg/kg): -0.8
Mettl26 Log2FC (liver protein, 10mg/kg): -1.6
Minpp1 Log2FC (liver protein, 10mg/kg): 1.1
Mospd1 Log2FC (liver protein, 10mg/kg): -0.7
Mt1 Log2FC (liver protein, 10mg/kg): 5.3
Mtr Log2FC (liver protein, 10mg/kg): 1.1
Mybbp1a Log2FC (liver protein, 10mg/kg): 1.1
Ncl Log2FC (liver protein, 10mg/kg): 0.8
Nob1 Log2FC (liver protein, 10mg/kg): 0.8
Orm1 Log2FC (liver protein, 10mg/kg): 1.2
Paics Log2FC (liver protein, 10mg/kg): 0.8
Pcyt1a Log2FC (liver protein, 10mg/kg): 0.6
Pklr.1 Log2FC (liver protein, 10mg/kg): -0.7
Prmt1 Log2FC (liver protein, 10mg/kg): 0.9
Pspc1 Log2FC (liver protein, 10mg/kg): 0.8
Ptprs Log2FC (liver protein, 10mg/kg): -1.3
Pum3 Log2FC (liver protein, 10mg/kg): 0.9
Rbm3 Log2FC (liver protein, 10mg/kg): 1.0
Rgn Log2FC (liver protein, 10mg/kg): -0.6
Rmdn1 Log2FC (liver protein, 10mg/kg): 0.7
S1pr1 Log2FC (liver protein, 10mg/kg): -0.6
Scd1 Log2FC (liver protein, 10mg/kg): -1.8
Sh3glb1 Log2FC (liver protein, 10mg/kg): 0.6
Sirt2 Log2FC (liver protein, 10mg/kg): 0.9
Slc6a13 Log2FC (liver protein, 10mg/kg): -1.3
Slc39a4 Log2FC (liver protein, 10mg/kg): -2.2
Sqle Log2FC (liver protein, 10mg/kg): 0.6
Srebf1 Log2FC (liver protein, 10mg/kg): 1.2
Sts Log2FC (liver protein, 10mg/kg): -0.7
Tat Log2FC (liver protein, 10mg/kg): -1.7
Tceanc2 Log2FC (liver protein, 10mg/kg): 1.4
Thg1l Log2FC (liver protein, 10mg/kg): 1
Tpmt Log2FC (liver protein, 10mg/kg): -1.2
Tspo Log2FC (liver protein, 10mg/kg): 2
Txnrd2 Log2FC (liver protein, 10mg/kg): -0.7
Ube2f Log2FC (liver protein, 10mg/kg): 0.9
Ugt2b1 Log2FC (liver protein, 10mg/kg): -1.6
Wdr45 Log2FC (liver protein, 10mg/kg): -0.9
Ythdc1 Log2FC (liver protein, 10mg/kg): 0.7
A2m Log2FC (liver protein, 30mg/kg): 3.7
Abcb1 Log2FC (liver protein, 30mg/kg): 2
Abhd1 Log2FC (liver protein, 30mg/kg): -1.5
Acaca Log2FC (liver protein, 30mg/kg): -1.2
Acbd4 Log2FC (liver protein, 30mg/kg): -0.6
Acly Log2FC (liver protein, 30mg/kg): -0.9
Acsl1 Log2FC (liver protein, 30mg/kg): -0.8
Acsl3 Log2FC (liver protein, 30mg/kg): -0.9
Acsl5 Log2FC (liver protein, 30mg/kg): -0.6
Acsm2 Log2FC (liver protein, 30mg/kg): 1.4
Akap5 Log2FC (liver protein, 30mg/kg): -1.1
Aldh1a1 Log2FC (liver protein, 30mg/kg): 2.0
Aldh1a7 Log2FC (liver protein, 30mg/kg): 1.7
Aldh16a1 Log2FC (liver protein, 30mg/kg): -0.5
Alpl Log2FC (liver protein, 30mg/kg): 1.8
Als2 Log2FC (liver protein, 30mg/kg): -1.1
Anpep Log2FC (liver protein, 30mg/kg): 1.4
Aox1 Log2FC (liver protein, 30mg/kg): -1.2
Apeh Log2FC (liver protein, 30mg/kg): -0.7
Apoc1 Log2FC (liver protein, 30mg/kg): -1.1
Aqp8 Log2FC (liver protein, 30mg/kg): 1.0
Asns Log2FC (liver protein, 30mg/kg): 1.0
Baat Log2FC (liver protein, 30mg/kg): -0.9
Banf1 Log2FC (liver protein, 30mg/kg): 0.9
Bhmt2 Log2FC (liver protein, 30mg/kg): 1.1
Bhmt Log2FC (liver protein, 30mg/kg): 1.8
Brix1 Log2FC (liver protein, 30mg/kg): 0.9
Ca5a Log2FC (liver protein, 30mg/kg): 0.9
Carnmt1 Log2FC (liver protein, 30mg/kg): -1.3
Cbs Log2FC (liver protein, 30mg/kg): -2.8
Ccnd1 Log2FC (liver protein, 30mg/kg): 16.3
Cdh1 Log2FC (liver protein, 30mg/kg): 0.8
Cdo1 Log2FC (liver protein, 30mg/kg): -4.1
Ces2c Log2FC (liver protein, 30mg/kg): 1.7
Cfdp1 Log2FC (liver protein, 30mg/kg): 0.5
Chid1 Log2FC (liver protein, 30mg/kg): 1.0
Comt Log2FC (liver protein, 30mg/kg): -0.6
Coq4 Log2FC (liver protein, 30mg/kg): 0.7
Csad Log2FC (liver protein, 30mg/kg): -1.1
Ctbs Log2FC (liver protein, 30mg/kg): -0.7
Cyp2c23 Log2FC (liver protein, 30mg/kg): -0.9
Cyp4a2 Log2FC (liver protein, 30mg/kg): 1.3
Cyp4a10 Log2FC (liver protein, 30mg/kg): 1.1
Dbnl Log2FC (liver protein, 30mg/kg): 0.7
Dcakd Log2FC (liver protein, 30mg/kg): 1.3
Dkc1 Log2FC (liver protein, 30mg/kg): 0.6
Dmgdh Log2FC (liver protein, 30mg/kg): 0.7
Dohh Log2FC (liver protein, 30mg/kg): 0.7
Eif4ebp1 Log2FC (liver protein, 30mg/kg): 1.0
Enpep Log2FC (liver protein, 30mg/kg): -1.2
Fabp4 Log2FC (liver protein, 30mg/kg): 1.1
Fabp5 Log2FC (liver protein, 30mg/kg): -1.0
Fads1 Log2FC (liver protein, 30mg/kg): -1.6
Fasn Log2FC (liver protein, 30mg/kg): -0.7
Fdft1 Log2FC (liver protein, 30mg/kg): 1.1
Fdps Log2FC (liver protein, 30mg/kg): 0.5
Fgr Log2FC (liver protein, 30mg/kg): 1.8
Gimd1 Log2FC (liver protein, 30mg/kg): -0.7
Gmpr Log2FC (liver protein, 30mg/kg): 0.8
Gnl3 Log2FC (liver protein, 30mg/kg): 0.8
Gnmt Log2FC (liver protein, 30mg/kg): 1.7
Gpcpd1 Log2FC (liver protein, 30mg/kg): 1.8
Gstm1 Log2FC (liver protein, 30mg/kg): -0.8
Gstm2 Log2FC (liver protein, 30mg/kg): -0.9
Gtpbp4 Log2FC (liver protein, 30mg/kg): 0.8
Hexa Log2FC (liver protein, 30mg/kg): -0.6
Hfe Log2FC (liver protein, 30mg/kg): 1.0
Hmgcs1 Log2FC (liver protein, 30mg/kg): 1.6
Hmgn2 Log2FC (liver protein, 30mg/kg): 1.2
Hnrnpa1 Log2FC (liver protein, 30mg/kg): 1.5
Hsd17b7 Log2FC (liver protein, 30mg/kg): 0.6
Idi1 Log2FC (liver protein, 30mg/kg): 1.3
Igf1 Log2FC (liver protein, 30mg/kg): -1.6
Kalrn Log2FC (liver protein, 30mg/kg): 0.6
Lipa Log2FC (liver protein, 30mg/kg): -0.5
Lrrc8d Log2FC (liver protein, 30mg/kg): 0.8
Lyrm2 Log2FC (liver protein, 30mg/kg): 0.7
Mat1a Log2FC (liver protein, 30mg/kg): 0.6
Mat2a Log2FC (liver protein, 30mg/kg): 0.8
Mat2b Log2FC (liver protein, 30mg/kg): -2.7
Me1 Log2FC (liver protein, 30mg/kg): -1.0
Mettl7b Log2FC (liver protein, 30mg/kg): -1.0
Mettl26 Log2FC (liver protein, 30mg/kg): -1.8
Minpp1 Log2FC (liver protein, 30mg/kg): 1.5
Mospd1 Log2FC (liver protein, 30mg/kg): -0.7
Mt1 Log2FC (liver protein, 30mg/kg): 6.5
Mtr Log2FC (liver protein, 30mg/kg): 1.1
Mybbp1a Log2FC (liver protein, 30mg/kg): 1.0
Ncl Log2FC (liver protein, 30mg/kg): 0.8
Nob1 Log2FC (liver protein, 30mg/kg): 0.9
Orm1 Log2FC (liver protein, 30mg/kg): 1.5
Paics Log2FC (liver protein, 30mg/kg): 0.7
Pcyt1a Log2FC (liver protein, 30mg/kg): 0.8
Pklr.1 Log2FC (liver protein, 30mg/kg): -1.1
Prmt1 Log2FC (liver protein, 30mg/kg): 0.7
Pspc1 Log2FC (liver protein, 30mg/kg): 0.7
Ptprs Log2FC (liver protein, 30mg/kg): -1.0
Pum3 Log2FC (liver protein, 30mg/kg): 1.0
Rbm3 Log2FC (liver protein, 30mg/kg): 1.0
Rgn Log2FC (liver protein, 30mg/kg): -0.7
Rmdn1 Log2FC (liver protein, 30mg/kg): 0.8
S1pr1 Log2FC (liver protein, 30mg/kg): -0.8
Scd1 Log2FC (liver protein, 30mg/kg): -3.2
Sh3glb1 Log2FC (liver protein, 30mg/kg): 0.8
Sirt2 Log2FC (liver protein, 30mg/kg): 0.5
Slc6a13 Log2FC (liver protein, 30mg/kg): -1.0
Slc22a8 Log2FC (liver protein, 30mg/kg): -1.4
Slc39a4 Log2FC (liver protein, 30mg/kg): -2.8
Sqle Log2FC (liver protein, 30mg/kg): 0.8
Srebf1 Log2FC (liver protein, 30mg/kg): 1.3
Sts Log2FC (liver protein, 30mg/kg): -0.6
Tat Log2FC (liver protein, 30mg/kg): -1.6
Tceanc2 Log2FC (liver protein, 30mg/kg): 1.3
Thg1l Log2FC (liver protein, 30mg/kg): 0.6
Tpmt Log2FC (liver protein, 30mg/kg): -1.4
Tspo Log2FC (liver protein, 30mg/kg): 1.9
Txnrd2 Log2FC (liver protein, 30mg/kg): -0.6
Ube2f Log2FC (liver protein, 30mg/kg): 0.6
Ugt2b1 Log2FC (liver protein, 30mg/kg): -1.1
Wdr45 Log2FC (liver protein, 30mg/kg): -1.1
Ythdc1 Log2FC (liver protein, 30mg/kg): 0.5
mvd Log2FC (liver protein, 30mg/kg): 0.9
differentially expressed liver proteins vs vehicle control (middle dose (10 mg/kg BID), adjusted p < 0.05 and Log2 FC > 0.5 or < −0.5): 467
